Data from patent publication US9649266B2 (priority 2014, dated 2017).
Like-named read-outs stand apart in the source and are kept apart here.

Experiments:
[1] = test system: sebum production; details: for reduction in sebum production (as assessed by the Sebotape): 2% memantine lotion twice daily on back skin, vs pre-treatment or control region; for health of the skin in treatment region: 2% memantine lotion twice daily
[2] = test system: acne; details: 0.5% cream on face twice a day, after three months
[3] = test system: enlarged skin pores; details: 0.1% gel on face twice a day, after a month
[4] = test system: oily skin; details: 1% solution on face twice a day, after a month

Q: How did the “reduction in sebum production (as assessed by the Sebotape)” value ([1]; after five days) turn out when `CC12CC3CC(C)(C1)CC(N)(C3)C2` [memantine] was run?
A: Its value is over 50%.

Q: And the “reduction in sebum production (as assessed by the Sebotape)” value ([1]; after six days)?
A: Its value is over 50%.

Q: What about the “health of the skin in treatment region” value ([1]; after five days) of the same compound?
A: The value was “healthy skin”.

Q: And the “health of the skin in treatment region” value ([1]; after six days)?
A: Its value is “healthy skin”.

Q: And the appearance of acne [2]?
A: The appearance of acne was “less visible”.

Q: And the “visible unwanted side-effects regarding skin” value [2]?
A: The value was “no other visible unwanted side-effects”.

Q: With `CNC1(C)C2CCC(C2)C1(C)C` (stereo not shown) [mecamylamine] as the compound, how does the “appearance of skin pores” value [3] read?
A: The value was “smaller in diameter”.

Q: And the “visible unwanted side-effects regarding skin” value [3]?
A: The value was “no other visible unwanted side-effects”.

Q: How did the “appearance of skin oiliness” value [4] turn out when `OC(CCN1CCCCC1)(c1ccccc1)C1CC2C=CC1C2` (stereo not shown) [biperiden] was run?
A: Its value is “much less oily”.

Q: What about the “visible unwanted side-effects regarding skin” value [4] of the same compound?
A: The value was “no other visible unwanted side-effects”.
